Source: US9445987B2, “Ceramide production enhancer and moisturizer” (Kao Corporation, priority 2009, dated 2016)

Test system: Normal human epidermal keratinocytes (NHEK(F))
Assay: Verification of ceramide production enhancing effect (Test Example 2 and Reference Example)
Format: cell-based
Experimental: Normal human epidermal keratinocytes (trade name: NHEK(F), manufactured by Kurabo Industries, Ltd.) were cultured under the conditions of 37° C. and 5% CO2, in a culture fluid (trade name: EpiLife-KG2, manufactured by Kurabo Industries, Ltd.) using a culture plate.
Thereafter, the culture fluid was exchanged with EpiLife-KG2 from which growth factors such as epidermal growth factor had been eliminated, and a solution in which concentration of toosendanin was adjusted to 1 mM (574 ppm), or a control solution (50% ethanol) was added to the culture fluid in an amount of 0.01%.
The cells were cultured for 3 days, and then the respective cells were collected from each well.
An organic phase obtained by extracting lipids from the collected cells by the Blight and Dyer method, was transferred into a glass tube, and was dried to solid in nitrogen stream. Subsequently, the dried product was redissolved in chloroform and methanol, and this was used as a lipid sample.
Further, 0.1N NaOH and a 1% aqueous SDS solution were added to the cells from which lipids had been extracted, and the mixture was heated at 60° C. for 2 hours to thereby solubilize proteins. The mixture was cooled to room temperature, and then 2N HCl was added for neutralization. The amount of proteins was quantified by the BCA method. […]

CC(=O)O[C@@H]1C[C@H](O)[C@@]23CO[C@@H](O)[C@]1(C)[C@@H]2C[C@@H](O)[C@]1(C)[C@@H]3C(=O)[C@H](OC(C)=O)[C@@]2(C)[C@H](c3ccoc3)C[C@H]3O[C@]321 [Toosendanin, toosendanin]
Amount of ceramide production (Amount of ceramide production of control solution-added group = 1) (concentration for verification 57.4 ppb, cells cultured 3 days, TLC detection, control 50% ethanol): 1.22 | amount of ceramide production as compared to the control system (in words) (toosendanin-added system, 57.4 ppb, Table 2): an increase in the amount of ceramide production was recognized
